From PubChem BioAssay AID1963961 (Molecular Pharmacology Branch, DTP, NCI, 2024)

System: K98450-129-R-PDC multicell spheroids, viability
Experiment: Anticancer human tumor K98450-129-R-PDC patient-derived colon adenocarcinoma cell line growth inhibition [PI3K]
Details: for IC50: curve of first compound; for viability, T/C: stronger effect = lower value
Description: Combinatorial screen of targeted agents with the PI3K inhibitors inavolisib, alpelisib, duvelisib, and copanlisib in multi-cell type tumor spheroids
A high-throughput screen of multi-cell type tumor spheroids was designed to identify active combinations of targeted small molecules and PI3K pathway inhibitors. Complex spheroids include a stromal component modeled by human endothelial cells (HUVEC) and fibroblasts modeled by human mesenchymal stem cells (MSCs). The concentration ranges selected for each drug and investigational agent were based upon clinically achievable concentrations if the clinical Cmax of the agent was known.
Compounds. The drugs and investigational agents: inavolisib (NSC800729), alpelisib (NSC765974), duvelisib (NSC772469), copanlisib (NSC816437), ipatasertib (NSC767898), afuresertib (NSC778305), talazoparib (NSC767125), sapanisertib (NSC764658), selumetinib (NSC741078), tovorafenib (DAY101, NSC766906), vemurafenib (NSC761431), ravoxertinib (NSC781343), sotorasib (NSC818433), MRTX1133 (NSC 836407), abemaciclib (NSC 768073), palbociclib (NSC758247), venetoclax (NSC 766270), SY5609 (NSC837396), enzalutamide (NSC755605), and darolutamide (NSC825331), were obtained from the National Cancer Institute (NCI) Developmental Therapeutics Program Chemical Repository. The FDA-approved anticancer drug set is available from the NCI Developmental Therapeutics Program. […] The stock solutions were prepared in dimethyl sulfoxide (DMSO, Sigma-Aldrich, St. Louis, MO, cat. D2650) at 800-fold the tested concentration and stored at -70 degrees C prior to their use. All drugs and investigational agents were tested over a range starting from a high concentration at or near the clinical Cmax and decreasing in half-log increments. If the clinical Cmax for an agent had not been determined, the highest concentration tested was 10 microM.
Cell Culture. All cells were maintained in an incubator at 37 degrees C and 5% CO2 with 95% humidity. The PDC lines were cultured according to standard operating procedures established by the NCI PDMR (https://pdmr.cancer.gov/sops/default.htm). All PDCs were thawed and cultured in Matrigel-coated flasks prepared with a working solution of 1X Ham's F-12 nutrient mix, without supplementation (Invitrogen, Waltham, MA, cat. 11765054), 100 U/mL penicillin-streptomycin (Invitrogen, cat. 15140122), and 2.5% Matrigel (Corning Inc., Corning, NY, cat. 354248) for the first three passages. The 354836-022-R-J1-PDC, 475296-252-R-J1-PDC, and 997726-040-R-J2-PDC lines were cultured in 6A media, which includes advanced DMEM/F-12 (Thermo Fisher Scientific, cat. 12634028), 10 mM HEPES (Thermo Fisher Scientific, cat. 15630080), 1X GlutaMAX supplement (Thermo Fisher Scientific, cat. 35050061), 0.1 mg/mL primocin (InvivoGen, San Diego, CA, cat. ant-pm-2), 10% defined fetal bovine serum, heat inactivated (HyClone Laboratories Inc., Logan, UT, cat. SH30070.03HI), 50% L-WRN conditioned media (ATCC, cat. CRL-3276), 1.25 mM N-Acetyl-L-cysteine (Sigma-Aldrich, cat. A9165), 10 mM nicotinamide (Sigma-Aldrich, cat. N0636), 1X B-27 supplement (Thermo Fisher Scientific, cat. 17504044), 1X N-2 supplement (Thermo Fisher Scientific, cat. 17502048), and 10 microM Y-27632 dihydrochloride (Tocris Bioscience, Bristol, United Kingdom, cat. 1254). The 624824-186-R-J2-PDC line was cultured in 6C/Colon 1B media, which includes all 6A media components plus 50 ng/mL human EGF recombinant protein (Thermo Fisher Scientific, cat. PHG0311). […]

[1] = second compound 0.0316 µM, first compound 0.0316 µM
[2] = second compound 0.0316 µM, first compound 0.1 µM
[3] = second compound 0.1 µM, first compound 0.0316 µM
[4] = second compound 0.1 µM, first compound 0.1 µM
[5] = second compound 0.316 µM, first compound 0.0316 µM
[6] = second compound 0.316 µM, first compound 0.1 µM
[7] = second compound 1 µM, first compound 0.0316 µM
[8] = second compound 1 µM, first compound 0.1 µM
[9] = second compound 3.16 µM, first compound 0.0316 µM
[10] = second compound 3.16 µM, first compound 0.1 µM
[11] = second compound 10 µM, first compound 0.0316 µM
[12] = second compound 10 µM, first compound 0.1 µM
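Also: spheroids exposed to agents for seven days before read-out.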

For `CC(C)NCC(C(=O)N1CCN(c2ncnc3c2C(C)CC3O)CC1)c1ccc(Cl)cc1` (centres undefined) + CC(Nc1ncnc2nc[nH]c12)c1cc2cccc(Cl)c2c(=O)n1-c1ccccc1, the IC50 (second compound 0.0316 µM) was > 10 µM, the IC50 (second compound 0.1 µM) was > 10 µM and the IC50 (second compound 0.316 µM) was > 10 µM. The IC50 (second compound 1 µM) was > 10 µM, the IC50 (second compound 3.16 µM) was > 10 µM and the IC50 (second compound 10 µM) was > 10 µM. It also gave a viability, T/C [1] of 98.2%, a viability, T/C [2] of 107% and a viability, T/C (second compound 0.0316 µM, first compound 0.316 µM) of 101%. It also gave a viability, T/C (second compound 0.0316 µM, first compound 1 µM) of 96.4%, a viability, T/C (second compound 0.0316 µM, first compound 3.16 µM) of 102% and a viability, T/C (second compound 0.0316 µM, first compound 10 µM) of 98.5%. The viability, T/C [3] was 111%, the viability, T/C [4] was 115% and the viability, T/C (second compound 0.1 µM, first compound 0.316 µM) was 99.3%. For the same compound, the viability, T/C (second compound 0.1 µM, first compound 1 µM) was 89.6%, the viability, T/C (second compound 0.1 µM, first compound 3.16 µM) was 94.9% and the viability, T/C (second compound 0.1 µM, first compound 10 µM) was 83.4%. It also gave a viability, T/C [5] of 96.6%, a viability, T/C [6] of 97.2% and a viability, T/C (second compound 0.316 µM, first compound 0.316 µM) of 87.1%. The viability, T/C (second compound 0.316 µM, first compound 1 µM) was 105%, the viability, T/C (second compound 0.316 µM, first compound 3.16 µM) was 105% and the viability, T/C (second compound 0.316 µM, first compound 10 µM) was 102%. It also gave a viability, T/C [7] of 106%, a viability, T/C [8] of 100% and a viability, T/C (second compound 1 µM, first compound 0.316 µM) of 104%. It also gave a viability, T/C (second compound 1 µM, first compound 1 µM) of 98.4%, a viability, T/C (second compound 1 µM, first compound 3.16 µM) of 115% and a viability, T/C (second compound 1 µM, first compound 10 µM) of 101%. It also gave a viability, T/C [9] of 79.2%, a viability, T/C [10] of 88.4% and a viability, T/C (second compound 3.16 µM, first compound 0.316 µM) of 101%. For the same compound, the viability, T/C (second compound 3.16 µM, first compound 1 µM) was 99.2%, the viability, T/C (second compound 3.16 µM, first compound 3.16 µM) was 97.5% and the viability, T/C (second compound 3.16 µM, first compound 10 µM) was 85.7%. It also gave a viability, T/C [11] of 110%, a viability, T/C [12] of 89.5% and a viability, T/C (second compound 10 µM, first compound 0.316 µM) of 77.5%. It also gave a viability, T/C (second compound 10 µM, first compound 1 µM) of 88.6%, a viability, T/C (second compound 10 µM, first compound 3.16 µM) of 103% and a viability, T/C (second compound 10 µM, first compound 10 µM) of 87.2%.
With `Cn1ncnc1[C@H]1c2n[nH]c(=O)c3cc(F)cc(c23)N[C@@H]1c1ccc(F)cc1` + CC(Nc1ncnc2nc[nH]c12)c1cc2cccc(Cl)c2c(=O)n1-c1ccccc1 the IC50 (second compound 0.0316 µM) was > 0.1 µM, the IC50 (second compound 0.1 µM) was > 0.1 µM and the IC50 (second compound 0.316 µM) was > 0.1 µM. For the same compound, the IC50 (second compound 1 µM) was > 0.1 µM, the IC50 (second compound 3.16 µM) was > 0.1 µM and the IC50 (second compound 10 µM) was > 0.1 µM. The viability, T/C (second compound 0.0316 µM, first compound 0.000316 µM) was 108%, the viability, T/C (second compound 0.0316 µM, first compound 0.001 µM) was 118% and the viability, T/C (second compound 0.0316 µM, first compound 0.00316 µM) was 111%. For the same compound, the viability, T/C (second compound 0.0316 µM, first compound 0.01 µM) was 111%, the viability, T/C [1] was 97.9% and the viability, T/C [2] was 87.2%. It also gave a viability, T/C (second compound 0.1 µM, first compound 0.000316 µM) of 110%, a viability, T/C (second compound 0.1 µM, first compound 0.001 µM) of 106% and a viability, T/C (second compound 0.1 µM, first compound 0.00316 µM) of 97.5%. It also gave a viability, T/C (second compound 0.1 µM, first compound 0.01 µM) of 107%, a viability, T/C [3] of 104% and a viability, T/C [4] of 114%. It also gave a viability, T/C (second compound 0.316 µM, first compound 0.000316 µM) of 109%, a viability, T/C (second compound 0.316 µM, first compound 0.001 µM) of 97.5% and a viability, T/C (second compound 0.316 µM, first compound 0.00316 µM) of 112%. The viability, T/C (second compound 0.316 µM, first compound 0.01 µM) was 98.3%, the viability, T/C [5] was 108% and the viability, T/C [6] was 85.5%. It also gave a viability, T/C (second compound 1 µM, first compound 0.000316 µM) of 100%, a viability, T/C (second compound 1 µM, first compound 0.001 µM) of 97.5% and a viability, T/C (second compound 1 µM, first compound 0.00316 µM) of 93.8%. It also gave a viability, T/C (second compound 1 µM, first compound 0.01 µM) of 83.6%, a viability, T/C [7] of 94.5% and a viability, T/C [8] of 95.8%. It also gave a viability, T/C (second compound 3.16 µM, first compound 0.000316 µM) of 103%, a viability, T/C (second compound 3.16 µM, first compound 0.001 µM) of 100% and a viability, T/C (second compound 3.16 µM, first compound 0.00316 µM) of 99.3%. For the same compound, the viability, T/C (second compound 3.16 µM, first compound 0.01 µM) was 104%, the viability, T/C [9] was 102% and the viability, T/C [10] was 88%. It also gave a viability, T/C (second compound 10 µM, first compound 0.000316 µM) of 86.5%, a viability, T/C (second compound 10 µM, first compound 0.001 µM) of 120% and a viability, T/C (second compound 10 µM, first compound 0.00316 µM) of 88.2%. It also gave a viability, T/C (second compound 10 µM, first compound 0.01 µM) of 87.8%, a viability, T/C [11] of 98.3% and a viability, T/C [12] of 91.8%.
